Experiments:
Assay type in all cases: biochemical
[1] = biological target: T1, Escherichia coli 3-deoxy-D-arabinoheptulonic acid-7-phosphate synthase (DS) encoded by aroF, wild type (pTS-aroF) (Escherichia coli, UniProt P00888); assay: DS enzyme activity in the presence of L-tyrosine (crude enzyme solution); details: crude enzyme of AB3257/pTS-aroF; concentration not stated in text (Fig. 2)
T1 construct: cloning the natural DS gene of Escherichia coli; made in house; host or cells: Escherichia coli AB3257 (aroF, aroG, aroH deleted), crude enzyme solution
Text: (§1) The above plasmids, bearing either mutant aroF (pTS-aroF15 and pTS-aroF33) or mutant aroG (pTS-aroG4, pTS-aroG8, pTS-aroG15, pTS-aroG17, pTS-aroG29 and pTS-aroG40), were used to transform Escherichia coli AB3257 strain having no DS activity. The respective transformants were named AJ 12598 (AB3257/pTS-aroF15), AJ 12599 (AB3257/pTS-aroF33), AJ 12562 (AB3257/pTS-aroG4), AJ 12600 (AB3257/pTS-aroG8), AJ 12563 (AB3257/pTS-aroG15), AJ 12601 (AB3257/pTS-aroG17), AJ 12602 (AB3257/pTS-aroG29) and AJ 12603 (AB3257/pTS-aroG40), respectively. Among them, AJ 12563 and AJ 12603 were deposited as representative strains in the Fermentation Research Institute of the Agency of Industrial Science & Technology of Japan, under the deposit numbers Escherichia coli FERM BP-3567 and FERM BP-3568, respectively. For the purpose of comparison, plasmids hearing wild type genes were also used to transform the E. coli AB3257 strain.
(§2) Each of these strains were cultured for 24 hours in a known L-phenylalanine-producing medium [Sugimoto, S. et al., J. Biotechnol., 5, 237 (1988)]. From the culture cells, the crude enzyme solution was prepared by ultrasonic homogenization. The enzyme activity of DS was determined in a conventional manner [Gollub, E. et al., Methods Enzymol., 17, 349], in the presence of L-tyrosine in the case of aroF, and in the presence of L-phenylalanine in the case of aroG.

[2] = biological target: T2, Escherichia coli DS encoded by aroF, variant aroF15, 147 Asp → Asn (pTS-aroF15) (Escherichia coli, UniProt P00888, D147N); assay: as above; details: crude enzyme of AJ 12598 (AB3257/pTS-aroF15); concentration not stated in text (Fig. 2)
T2 construct: cloning the natural DS gene of Escherichia coli; made in house; host or cells: Escherichia coli AB3257 (strain AJ 12598), crude enzyme solution
Text: as §1, §2

[3] = biological target: T3, Escherichia coli DS encoded by aroF, variant aroF33, 181 Ser → Phe (pTS-aroF33) (Escherichia coli, UniProt P00888, S181F); assay: as above; details: crude enzyme of AJ 12599 (AB3257/pTS-aroF33); concentration not stated in text (Fig. 2)
T3 construct: cloning the natural DS gene of Escherichia coli; made in house; host or cells: Escherichia coli AB3257 (strain AJ 12599), crude enzyme solution
Text: as §1, §2

[4] = biological target: T4, Escherichia coli 3-deoxy-D-arabinoheptulonic acid-7-phosphate synthase (DS) encoded by aroG, wild type (pTS-aroG) (Escherichia coli, UniProt P0AB91); assay: DS enzyme activity in the presence of L-phenylalanine (crude enzyme solution); details: crude enzyme of AB3257/pTS-aroG; concentration not stated in text (Fig. 3)
T4 construct: cloning the natural DS gene of Escherichia coli; made in house; host or cells: Escherichia coli AB3257 (no DS activity), crude enzyme solution
Text: as §1, §2

[5] = biological target: T5, Escherichia coli DS encoded by aroG, variant aroG17, 147 Met → Ile, 332 Glu → Lys (pTS-aroG17) (Escherichia coli, UniProt P0AB91, E332K/M147I); assay: as above; details: crude enzyme of AJ 12601 (AB3257/pTS-aroG17); Fig. 3
T5 construct: cloning the natural DS gene of Escherichia coli; made in house; host or cells: Escherichia coli AB3257 (strain AJ 12601), crude enzyme solution
Text: as §1, §2

[6] = biological target: T6, Escherichia coli DS encoded by aroG, variant aroG15, 146 Asp → Asn (pTS-aroG15) (Escherichia coli, UniProt P0AB91, D146N); assay: as above; details: crude enzyme of AJ 12563 (AB3257/pTS-aroG15); Fig. 3
T6 construct: cloning the natural DS gene of Escherichia coli; made in house; host or cells: Escherichia coli AB3257 (strain AJ 12563), crude enzyme solution
Text: as §1, §2

[7] = biological target: T7, Escherichia coli DS encoded by aroG, variant aroG29, 147 Met → Ile (pTS-aroG29) (Escherichia coli, UniProt P0AB91, M147I); assay: as above; details: crude enzyme of AJ 12602 (AB3257/pTS-aroG29); Fig. 3
T7 construct: cloning the natural DS gene of Escherichia coli; made in house; host or cells: Escherichia coli AB3257 (strain AJ 12602), crude enzyme solution
Text: as §1, §2

[8] = biological target: T8, Escherichia coli DS encoded by aroG, variant aroG40, 157 Met → Ile, 219 Ala → Thr (pTS-aroG40) (Escherichia coli, UniProt P0AB91, A219T/M157I); assay: as above; details: crude enzyme of AJ 12603 (AB3257/pTS-aroG40); Fig. 3
T8 construct: cloning the natural DS gene of Escherichia coli; made in house; host or cells: Escherichia coli AB3257 (strain AJ 12603), crude enzyme solution
Text: as §1, §2

[9] = biological target: T9, Escherichia coli DS encoded by aroG, variant aroG8, 202 Ala → Thr (pTS-aroG8) (Escherichia coli, UniProt P0AB91, A202T); assay: as above; details: crude enzyme of AJ 12600 (AB3257/pTS-aroG8); Fig. 3
T9 construct: cloning the natural DS gene of Escherichia coli; made in house; host or cells: Escherichia coli AB3257 (strain AJ 12600), crude enzyme solution
Text: as §1, §2

[10] = biological target: T10, Escherichia coli DS encoded by aroG, variant aroG4, 150 Pro → Leu (pTS-aroG4, strain AJ 12562) (Escherichia coli, UniProt P0AB91, P150L); assay: as above; details: crude enzyme of AJ 12562 (AB3257/pTS-aroG4); Fig. 3
T10 construct: cloning the natural DS gene of Escherichia coli; made in house; host or cells: Escherichia coli AB3257 (strain AJ 12562), crude enzyme solution
Text: as §1, §2

[11] = biological target: T11, Escherichia coli K-12 chorismate mutase-prephenate dehydratase (CM-PD), variant with 330 serine residue substituted with an aspartic acid (pPHAD) (Escherichia coli, UniProt P0A9J8, S330D); assay: PD enzyme activity in the presence of L-phenylalanine (crude enzyme); details: crude enzyme of W3110 (tyrA)/(pPHAD); concentration not given
T11 construct: the natural CM-PD gene of Escherichia coli is cloned; made in house; host or cells: Escherichia coli W3110 (tyrA), crude enzyme
Experimental: (§3) Escherichia coli K-12 W3110 (tyrA)/(pPHAB) strain was cultured at 37°C for 15 hours in L medium and the cells were collected by centrifugation. Then, the cells were washed twice with physiological saline, and suspended in 250 mM Tris-hydrochloride buffer (pH 7.5) containing 0.5 mM dithiothreitol under ice cooling. By ultrasonication (20 KHz) for 30 seconds four times, the crude enzyme solution was prepared.
(§4) The PD enzyme activity was determined in a conventional manner [Cotton, R.G.H. and Gibson, F., Meth. in Enzymol., 17, 564 (1970)]. Using the crude enzyme, the enzymatic reaction was carried out at 37°C for 10 minutes in the presence of 50 mM Tris-hydrochloride buffer (pH 8.2) containing 1 mM barium prephenate and 0.5 mM L-tyrosine. Aqueous sodium hydroxide (1 N) was added to terminate the reaction, and the formed phenylpyruvic acid was measured at an extinction wavelength of 320 nm.
(§5) Quantitative determination of protein was made using the Protein Assay Kit (manufactured by Bio Rad Co.), according to the protocol of the manufacturer.
(§6) By using the same method above, the PD enzyme activities of Escherichia coli W3110 (tyrA)/(pPHAD) and Escherichia coli W3110 (tyrA)/(pPHATerm) were determined.

[12] = biological target: T12, Escherichia coli K-12 chorismate mutase-prephenate dehydratase (CM-PD), variant with amino acid residues downstream from the 330 serine residue deleted (pPHATer (Escherichia coli, UniProt P0A9J8)); assay: as above; details: crude enzyme of W3110 (tyrA)/(pPHATerm); concentration not given
T12 construct: made in house; host or cells: Escherichia coli W3110 (tyrA), crude enzyme
Experimental: as §3, §4, §5, §6

[13] = biological target: T13, Escherichia coli chorismate mutase-prephenate dehydratase (CM-PD), wild type (Escherichia coli, UniProt P0A9J8); assay: as above; details: 0.5 mM L-phenylalanine; 1 mM barium prephenate, 0.5 mM L-tyrosine, pH 8.2, 37°C, 10 minutes; Fig. 4
T13 construct: the natural CM-PD gene of Escherichia coli is cloned; made in house
Experimental: as §3, §4, §5

[14] = biological target: T14, Escherichia coli K-12 chorismate mutase-prephenate dehydratase (CM-PD), variant with 330 serine residue substituted with a proline residue (pPHAB) (Escherichia coli, UniProt P0A9J8, S330P); assay: as above; details: 5 mM L-phenylalanine; 1 mM barium prephenate, 0.5 mM L-tyrosine, pH 8.2, 37°C, 10 minutes; Fig. 4
T14 construct: the natural CM-PD gene of Escherichia coli is cloned; made in house; host or cells: Escherichia coli K-12 W3110 (tyrA), crude enzyme solution
Experimental: as §3, §4, §5

SMILES | inhibition by L-tyrosine of DS enzyme activity [1] | inhibition by L-tyrosine of DS enzyme activity [2] | inhibition by L-tyrosine of DS enzyme activity [3] | inhibition by L-phenylalanine of DS enzyme activity [4] | inhibition by L-phenylalanine of DS enzyme activity [5] | inhibition by L-phenylalanine of DS enzyme activity [6] | inhibition by L-phenylalanine of DS enzyme activity [7] | inhibition by L-phenylalanine of DS enzyme activity [8] | inhibition by L-phenylalanine of DS enzyme activity [9] | DS enzyme activity as a function of L-phenylalanine concentration [10] | inhibition by L-phenylalanine of DS enzyme activity [10] | feedback inhibition by L-phenylalanine of PD enzyme activity [11] | feedback inhibition by L-phenylalanine of PD enzyme activity [12] | inhibition by L-phenylalanine of prephenate dehydratase activity [13] | inhibition by L-phenylalanine of prephenate dehydratase activity [14]
N[C@@H](Cc1ccc(O)cc1)C(=O)O [L-tyrosine] | strongly inhibited | released from feedback inhibition | released from feedback inhibition |  |  |  |  |  |  |  |  |  |  |  | 
N[C@@H](Cc1ccccc1)C(=O)O [L-phenylalanine] |  |  |  | strongly inhibited | feedback inhibition by L-phenylalanine is released | feedback inhibition by L-phenylalanine is released | feedback inhibition by L-phenylalanine is released | feedback inhibition by L-phenylalanine is released | feedback inhibition by L-phenylalanine is released | increases as the concentration of L-phenylalanine increases | releases feedback inhibition | released from feedback inhibition | released from feedback inhibition | strongly inhibited | almost no inhibition
